The values below come from publication PMC9793460, “Food effect risk assessment in preformulation stage using material sparing μFLUX methodology” (ADMET & DMPK, 2022).

Where a name gives a salt, the structure may show the parent alone. Read-outs that look alike come from different tables or passages of the source. Marks after values point to notes of the source that are not given here.

Data set [1] can be described thus: μFLUX dissolution/flux test, FaSSIF or FeSSIF donor, acceptor sink buffer receiver. In kind it is in vitro ADME. As to conditions: 0.4 mg/mL.
For data set [2] the following is noted: cited from earlier work; for FE (food effect observed in clinic): assigned from AUC and Cmax ratios of published clinical data; for Observed AUC Ratio (Fed/Fasted) / Observed Cmax Ratio (Fed/Fasted): ratio of geometric means fed/fasted, published clinical data.
The conditions of data set [3]: cited from earlier work; for Solubility FaSSIF (pH 6.5) / Solubility FeSSIF (pH 5.0): some values determined in the authors' lab (not marked).
Data set [4] is described as follows: μFLUX dissolution/flux test, FaSSIF or FeSSIF donor, acceptor sink buffer receiver. In kind it is in vitro ADME. As to conditions: for Flux Fa (±SD; n=3) / Flux Fe (±SD; n=3): unformulated powder, initial flux excluding lag time, 37 °C; for Flux Ratios (Fed/Fasted): FeSSIF/FaSSIF; for Food effect indicated by flux ratio: prediction from FeSSIF/FaSSIF flux ratio. The procedure: Dissolution/flux tests were performed using a μFLUX apparatus (Pion Inc., Billerica, MA, USA) with 4 side-by-side donor-receiver chambers separated by a lipophilic barrier. Prior to the assay, the artificial GIT-mimicking membrane was prepared by impregnating a PVDF filter support material (polyvinylidenfluoride, 1.54 cm^2 open area, 0.45 μm pore size, 120 μm thickness, 70 % nominal porosity) with 25 μL of 20 % lecithin in dodecane lipid solution (GIT Lipid, Pion Inc., Billerica, MA, USA). The donor chambers were then filled with 20 ml of biorelevant media (FaSSIF or FeSSIF) while the receiver compartments were filled with 20 ml of acceptor sink buffer (ASB, Pion Inc., Billerica, MA, USA). The ASB is a HEPES (4-(2-hydroxyethyl)-1-piperazineethanesulfonic acid) based pH 7.4 buffer containing chemical scavengers (surfactants micelles) that allow to maintain sink conditions during the experiments. The composition of the membrane and the receiver solution are identical to the Double-Sink PAMPA model, a non-cell-based method predicting of passive transcellular intestinal absorption. The temperature in both chambers was maintained at 37 °C and the media were stirred at 100 rpm.
Model compounds were added at the start of the experiment in the donor chambers as unformulated powder at a solid load equivalent to the lowest marketed dose normalized to 250 mL stomach volume. In some cases, to counter for experimental limitation due to low signal detection or high turbidity, a higher or lower dose was selected.
Standards for each model compound were prepared by sequential addition of a stock solution of pure API pre-dissolved in organic solvents (either methanol or DMSO) to the corresponding medium. The area under the 2nd derivative spectra curves was used to calculate the concentrations. The wavelength range was selected individually for each compound in the way to avoid sensitivity issues. […] The drug concentration in the donor and receiver chambers was calculated from the UV absorbance of the samples using the corresponding standard curve. For samples with low permeability, an additional μFLUX donor-receiver pair containing described reagents except API was included in parallels and used as a corrective “blank” at the corresponding time point to ensure that the UV signal of API could be differentiated from the spectral noise of the biorelevant media. Concentration-time profiles were monitored over at least 180 min, in triplicate for each drug unless otherwise mentioned.
The flux (J) across the membrane representing the amount (m) of material crossing one unit area (A) of the membrane per unit time (t), was calculated from the concentration-time profiles in the receiver compartments:
A is the area of the membrane (1.54 cm^2), V is the volume of the receiver compartment (20 mL) and dc/dt (μg mL^-1 min^-1) is the slope of the concentration time profile of the drug in the receiver compartment.
The flux values were calculated by fitting the concentration-time profile in the receivers to a straight line to determine the slope and then normalizing the slope to the volume and surface area of the membrane following equation (1). Time intervals to calculate the flux were selected based on the apparent linearity of the concentration-time profile in the receivers, capturing the initial flux process and excluding the lag time unless otherwise is stated.

Data set [5] in a line: Solubility in biorelevant media (FaSSIF / FeSSIF). In kind it is physicochemical. As to conditions: for Solubility ratio (Fed/Fasted): FeSSIF/FaSSIF, calculated from Table 2 solubilities; for Food effect indicated by solubility ratio: prediction from FeSSIF/FaSSIF solubility ratio. Here is the method:
Solubility measurements were performed by adding an excess amount of drug into FaSSIF or FeSSIF media in a glass vial. […] After equilibration, samples were centrifuged/filtered using NANOSEP with 0.2 μm Bio-inert centrifugal devices (PAL Corporation). The filtrate was immediately diluted accordingly into acetonitrile/water 50/50 and analyzed by HPLC.
Model drugs categorized as BCS I - IV classes were selected. The drugs included mono- and diprotic acids and bases as well as non-ionizable compounds. […] The physicochemical properties of the model compounds, pKa, log P [18, 19] and solubility in biorelevant media [[20-26]] were collected from the literature and are depicted in Table 2.

The conditions of data set [6]: cited from earlier work; for Type: ionization type; for pKa: experimental, higher pKa where two are given.
The conditions of data set [7]: experimental; cited from earlier work.

With `CCc1nn(CCCN2CCN(c3cccc(Cl)c3)CC2)c(=O)n1CCOc1ccccc1` [Nefazodone HCl, nefazodone hydrochloride], the “Flux Fa (±SD; n=3), suspension” value in data set [1] (FaSSIF donor, sample introduced as slurry of DS in the medium) is on record as 2.610 ± 0.618. The “Flux Fe (±SD; n=3), suspension” value in data set [1] (FeSSIF donor, sample introduced as slurry of DS in the medium) is on record as 1.923 ± 0.547. The “Flux Ratios (Fed/Fasted), suspension” value in data set [1] (FeSSIF/FaSSIF, sample introduced as slurry) worked out at 0.74. Also, in data set [2], the “FE (food effect observed in clinic)” value was “negative food effect”, the “Observed AUC Ratio (Fed/Fasted)” value is on record as 0.78 and the “Observed Cmax Ratio (Fed/Fasted)” value is 0.93. Further, in data set [3], the “Solubility FaSSIF (pH 6.5)” value was 252 μg/mL and the “Solubility FeSSIF (pH 5.0)” value was 383 μg/mL. For the same compound, in data set [4] (FaSSIF donor), the “Flux Fa (±SD; n=3)” value is listed as 0.521 ± 0.179. Further, the “Flux Fe (±SD; n=3)” value in data set [4] (FeSSIF donor) is recorded as 1.077 ± 0.084. For the same compound, in data set [4], the “Flux Ratios (Fed/Fasted)” value was determined as 2.07 and the “Food effect indicated by flux ratio” value is recorded as “negative food effect”. In data set [5], the “Solubility ratio (Fed/Fasted)” value was 1.52 and the “Food effect indicated by solubility ratio” value was “positive food effect”.
On to `COC1=CC(=O)C[C@@H](C)[C@]12Oc1c(Cl)c(OC)cc(OC)c1C2=O` [Griseofulvin], for which the Type result in data set [6] is recorded as “N”. Further, in data set [3], the “Solubility FaSSIF (pH 6.5)” value was 23.4 μg/mL and the “Solubility FeSSIF (pH 5.0)” value is 29.2 μg/mL. Moreover, the “Flux Fa (±SD; n=3)” value in data set [4] (FaSSIF donor) came out at 0.205 ± 0.011. Moreover, in data set [4] (FeSSIF donor), the “Flux Fe (±SD; n=3)” value is given as 0.218 ± 0.009. Further, the “log P” value in data set [7] is reported as 2.2.
For `Cc1ccc(-c2cc(C(F)(F)F)nn2-c2ccc(S(N)(=O)=O)cc2)cc1` [Celecoxib, celecoxib], the pKa in data set [6] was 9.38 ± 0.08^a. Moreover, in data set [2], the “FE (food effect observed in clinic)” value was “positive”, the “Observed AUC Ratio (Fed/Fasted)” value was 1.19 and the “Observed Cmax Ratio (Fed/Fasted)” value is given as 1.29. Also, the “FE (food effect observed in clinic)” value in data set [2] (listed as celecoxib) was “positive food effect”. For the same compound, the “Solubility FeSSIF (pH 5.0)” value in data set [3] is 103.3 μg/mL. The “Flux Fa (±SD; n=3)” value in data set [4] (FaSSIF donor) worked out at 0.186 ± 0.021. Further, in data set [4] (FeSSIF donor), the “Flux Fe (±SD; n=3)” value is given as 0.632 ± 0.077. Further, in data set [4], the “Flux Ratios (Fed/Fasted)” value is 3.4 and the “Food effect indicated by flux ratio” value is “positive food effect”. In addition, in data set [5], the “Solubility ratio (Fed/Fasted)” value is 2.24 and the “Food effect indicated by solubility ratio” value was “positive food effect”.
On to `Cc1cn([C@H]2C[C@H](N=[N+]=[N-])[C@@H](CO)O2)c(=O)[nH]c1=O` [Zidovudine, zidovudine], for which the pKa in data set [6] is on record as 9.40 ± 0.01^a. The “FE (food effect observed in clinic)” value in data set [2] is “negative food effect”. Further, the “Flux Fa (±SD; n=3)” value in data set [4] (FaSSIF donor) turned out to be 0.037 ± 0.007. For the same compound, in data set [4] (FeSSIF donor), the “Flux Fe (±SD; n=3)” value came to 0.034 ± 0.002. Further, the “log P” value in data set [7] is 0.13.
Take `CNCCC(Oc1ccc(C(F)(F)F)cc1)c1ccccc1` (centres unmarked) [Fluoxetine HCl, fluoxetine hydrochloride]: the “FE (food effect observed in clinic)” value is “none” in data set [2] and “not influenced by presence or absence of food” in data set [2] (listed as FXT).
In the case of `C#C[C@]1(O)CC[C@H]2[C@@H]3CCC4=Cc5oncc5C[C@]4(C)[C@H]3CC[C@@]21C` [Danazol, danazol], in data set [6], the Type entry is recorded as “N”.
Take `COC(=O)[C@H](c1ccccc1Cl)N1CCc2sccc2C1` [Clopidogrel bisulfate, clopidogrel bisulfate]: in data set [2], the “FE (food effect observed in clinic)” value was “none”, the “Observed AUC Ratio (Fed/Fasted)” value was 1.02 and the “Observed Cmax Ratio (Fed/Fasted)” value was 0.79. In addition, the “FE (food effect observed in clinic)” value in data set [2] (listed as clopidogrel bisulfate) was “no food effect”. Further, in data set [3], the “Solubility FaSSIF (pH 6.5)” value is 130 μg/mL and the “Solubility FeSSIF (pH 5.0)” value is recorded as 500 μg/mL. Further, the “Flux Fa (±SD; n=3)” value in data set [4] (FaSSIF donor) is listed as 1.751 ± 0.540. For the same compound, the “Flux Fe (±SD; n=3)” value in data set [4] (FeSSIF donor) was 2.168 ± 0.323. Also, in data set [4], the “Flux Ratios (Fed/Fasted)” value stood at 1.24 and the “Food effect indicated by flux ratio” value is “no food effect”. Besides, in data set [5], the “Solubility ratio (Fed/Fasted)” value is listed as 3.85 and the “Food effect indicated by solubility ratio” value was “positive food effect”.
In the case of `CCCCc1oc2ccccc2c1C(=O)c1cc(I)c(OCCN(CC)CC)c(I)c1` [Amiodarone, Amiodarone hydrochloride], in data set [2], the “FE (food effect observed in clinic)” value is reported as “positive food effect”. Further, the “Flux Fa (±SD; n=3), early” value in data set [4] (FaSSIF donor, early flux, first 2 hours excluding lag time) is 0.017± 0.003. In addition, in data set [4] (FaSSIF donor, late flux, 2.5-9 hours interval), the “Flux Fa (±SD; n=3), late” value turned out to be 0.579 ± 0.095. The “Flux Fe (±SD; n=3), early” value in data set [4] (FeSSIF donor, early flux, first 2 hours excluding lag time) turned out to be 0.073 ± 0.001. Also, in data set [4] (FeSSIF donor, late flux, 2.5-9 hours interval), the “Flux Fe (±SD; n=3), late” value was 1.277± 0.109.
On to `NNC(=O)c1ccncc1` [Isoniazid, isoniazid], for which, in data set [2], the “FE (food effect observed in clinic)” value is “negative food effect”, the “Observed AUC Ratio (Fed/Fasted)” value is listed as 0.88 and the “Observed Cmax Ratio (Fed/Fasted)” value is 0.49. In data set [3], the “Solubility FaSSIF (pH 6.5)” value was > 60,000 μg/mL and the “Solubility FeSSIF (pH 5.0)” value is reported as > 60,000 μg/mL. The “Solubility in FaSSIF” value in data set [3] (FaSSIF) is over 60 mg/mL. In addition, in data set [3] (FeSSIF), the “Solubility in FeSSIF” value is on record as over 60 mg/mL. In addition, in data set [4] (FaSSIF donor), the “Flux Fa (±SD; n=3)” value worked out at 0.020 ± 0. Further, in data set [4] (FeSSIF donor), the “Flux Fe (±SD; n=3)” value is on record as 0.020 ± 0.
For the compound `NS(=O)(=O)c1cc(C(=O)O)c(NCc2ccco2)cc1Cl` [Furosemide, furosemide], the “fraction of drug deprotonated” value in data set [6] (pH 5.0, species distribution curve) is ~ 97%. Further, the results for the “FE (food effect observed in clinic)” value in data set [2] and in data set [2] (listed as furosemide) were “negative” and “negative food effect”, respectively. Also, the “Flux Fa (±SD; n=3)” value in data set [4] (FaSSIF donor) was found to be 0.018 ± 0.003. Further, the “Flux Fe (±SD; n=3)” value in data set [4] (FeSSIF donor) worked out at 0.208 ± 0.036.
